The record followed here is ChEMBL document CHEMBL1201862, “PubChem BioAssay data set” (2004).

Some test systems named below: OVCAR-5; 786-0; KM12; MDA-N; HOP-62; IGROV-1; CAKI-1; MDA-MB-435; K562; SK-MEL-5; A498; NCI-H460; HCT-15; HCT-116; SN12C; ACHN; TK-10; RPMI-8226.
What all share (test): NCI tumour cell line growth inhibition, 48 h

Each structure is given as a SMILES string.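 The compound was tested at five concentrations on cells cultured in 96-well plates, with a 48-hour exposure period. GI50 is the concentration that inhibits growth by half.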 The source made the active and inactive calls. Cut-off read from the data, not from the text of the source: active = GI50 up to about 1.1 µM and inactive = higher. Square brackets hold non-standard residues; d marks the D form. Peptide text beside a SMILES is read from it. * marks the point of attachment. ξ: configuration not given here. ξF = NC(Cc1ccccc1)C(=O)O; Cbz = O=C(OCc1ccccc1)*; Aib = CC(C)(N)C(=O)O

Turning to `CCCCCCCCCCCCCCCC(=O)OCC(O)C1OC(=O)C(O)=C1O` (centres undefined), the GI50 with OVCAR-5 was 33.9 µM (inactive); with 786-0, 19.6 µM (inactive); in the test on KM12, 23.4 µM (inactive); in the test on MDA-N, 30.8 µM (inactive); in the test with HOP-62, 31.4 µM (inactive); in the test with IGROV-1, 37.6 µM (inactive). For the same molecule, the GI50 is 43.9 µM (inactive) in the test with CAKI-1; 21 µM (inactive) in the test with MDA-MB-435; 27.8 µM (inactive) in the test with K562; > 100 µM (inactive) in the test with SK-MEL-5; 35.7 µM (inactive) with A498; > 100 µM (inactive) with NCI-H460. For the same molecule, the GI50 in the test with HCT-15 was 32.5 µM; with HCT-116, 19.3 µM (inactive); in the test with SN12C it was 29.9 µM (inactive); with ACHN, 34 µM (inactive).
Turning to `CN(C)CCCn1c(Cc2ccccc2)nc2cc(C(F)(F)F)ccc21`, the GI50 with OVCAR-5 is 78.7 µM (inactive); with 786-0, 19.1 µM (inactive); in the test with KM12, 15.7 µM (inactive); with MDA-N it was 18.3 µM (inactive); with HOP-62 it was 26.4 µM (inactive); with IGROV-1 it was 30.2 µM (inactive). Moreover, the GI50 in the test on CAKI-1 is 17.7 µM (inactive); in the test with TK-10, 28.8 µM (inactive); in the test with MDA-MB-435 it was 15.9 µM (inactive); in the test with K562, 18.5 µM (inactive); in the test with SK-MEL-5, 17.3 µM (inactive); in the test with A498 it was 15 µM (inactive). For the same molecule, the GI50 with NCI-H460 was 19.6 µM (inactive); in the test on HCT-15 it was 24.8 µM; in the test with HCT-116, 18 µM (inactive); in the test on SN12C it was 41.6 µM (inactive); in the test with ACHN it was 62.8 µM (inactive).
For the molecule `CC(=O)OI1NC(=O)c2ccccc21`, the GI50 in the test on OVCAR-5, with 786-0, with KM12, in the test on RPMI-8226, in the test on MDA-N and with HOP-62 was > 100 µM (inactive) in each case. For the same molecule, the GI50 in the test on IGROV-1, with TK-10, with MDA-MB-435, in the test on K562, with SK-MEL-5 and in the test with A498 was > 100 µM (inactive) each time. In addition, the GI50 with HCT-15 was > 100 µM; in the test with HCT-116 it was > 100 µM (inactive); in the test on SN12C it was > 100 µM (inactive); in the test with ACHN, > 100 µM (inactive).
Turning to `N#CC(C#N)=c1c2ccccc2c(=C(C#N)C#N)c2ccccc12`, the GI50 with OVCAR-5 was 20.9 µM (inactive); in the test on 786-0, 14.9 µM (inactive); with KM12 it was 18.1 µM (inactive); in the test on RPMI-8226, 23.6 µM (inactive); with MDA-N it was 18.7 µM (inactive); in the test on HOP-62 it was 19.4 µM (inactive). Moreover, the GI50 is 12.8 µM (inactive) with IGROV-1; 14.9 µM (inactive) in the test on CAKI-1; 18.4 µM (inactive) with MDA-MB-435; 19.9 µM (inactive) with K562; 16.7 µM (inactive) in the test on SK-MEL-5; 23.8 µM (inactive) in the test on A498. Besides, the GI50 in the test with NCI-H460 is 42.2 µM (inactive); in the test on HCT-15, 43.3 µM; with HCT-116, 17.8 µM (inactive); in the test with SN12C it was 16.6 µM (inactive); with ACHN it was 20 µM (inactive).
`CCOC(=O)C(Cl)(Cl)/S(=N\S(=O)(=O)c1ccccc1)NC(=O)c1ccccc1` (centres undefined): the GI50 in the test with OVCAR-5, in the test on 786-0, in the test with KM12, in the test on RPMI-8226, with MDA-N and in the test with HOP-62 was > 100 µM (inactive) in each case. In addition, the GI50 in the test with IGROV-1, in the test on TK-10, in the test on MDA-MB-435, in the test with K562, with SK-MEL-5 and in the test with A498 was > 100 µM (inactive) each time. Besides, the GI50 is > 100 µM (inactive) in the test on NCI-H460; > 100 µM with HCT-15; > 100 µM (inactive) with HCT-116; > 100 µM (inactive) with SN12C; > 100 µM (inactive) in the test on ACHN.
In the case of `CC(C)CCCC(C)[C@H]1CC[C@H]2N/C(=N/c3ccccc3)CCC[C@]12C` (some centres undefined), the GI50 is 1.77 µM (inactive) in the test with 786-0; 2.43 µM (inactive) in the test with KM12; 1.65 µM (inactive) in the test with RPMI-8226; 3.03 µM (inactive) in the test on MDA-N; 2.52 µM (inactive) with HOP-62; 1.61 µM (inactive) in the test with IGROV-1. The GI50 in the test on CAKI-1 is 2.29 µM (inactive); with TK-10, 2.62 µM (inactive); with MDA-MB-435, 1.88 µM (inactive); with K562, 1.33 µM (inactive); in the test with SK-MEL-5, 1.27 µM (inactive); in the test on A498 it was 3.35 µM (inactive). The GI50 in the test on NCI-H460 is 1.93 µM (inactive); with HCT-15 it was 1.07 µM; with HCT-116, 2.28 µM (inactive); in the test on SN12C, 1.77 µM (inactive).
`Cc1ccc(C)n2c1nc1ccccc12`: the GI50 with OVCAR-5 is > 100 µM (inactive); with 786-0, > 100 µM (inactive); in the test on KM12, > 100 µM (inactive); with RPMI-8226 it was > 100 µM (inactive); with MDA-N it was > 100 µM (inactive); in the test on HOP-62, 85.5 µM (inactive). Further, the GI50 in the test on IGROV-1 was > 100 µM (inactive); in the test on TK-10 it was > 100 µM (inactive); with MDA-MB-435 it was > 100 µM (inactive); in the test with K562, > 100 µM (inactive); in the test on SK-MEL-5 it was 82.8 µM (inactive); in the test on A498 it was 1.46 µM (inactive). The GI50 in the test on NCI-H460 was 25.5 µM (inactive); in the test with HCT-15, > 100 µM; in the test on HCT-116, > 10 µM (inactive); in the test on SN12C, > 100 µM (inactive); with ACHN it was > 100 µM (inactive).
As for `CC(C)(NC(=O)OCc1ccccc1)C(=O)NC(Cc1ccccc1)C(=O)O` (centres undefined) (Cbz-[Aib]-[ξF]-OH), the GI50 in the test with OVCAR-5, with 786-0, in the test with KM12, with RPMI-8226, with MDA-N and with HOP-62 was > 100 µM (inactive) in each case. Further, the GI50 in the test on IGROV-1, in the test with CAKI-1, with MDA-MB-435, in the test on K562, in the test on SK-MEL-5 and in the test on A498 was > 100 µM (inactive) in each case. Besides, the GI50 is > 100 µM (inactive) with NCI-H460, > 100 µM in the test on HCT-15, > 100 µM (inactive) with HCT-116 and > 100 µM (inactive) in the test on SN12C.
For the molecule `COc1ccc(/C=C/c2cc(OC)cc(=O)o2)cc1` [YANGONIN], the GI50 is > 100 µM (inactive) with OVCAR-5; 36.1 µM (inactive) in the test with 786-0; 57.4 µM (inactive) with KM12; > 100 µM (inactive) in the test on RPMI-8226; 91.6 µM (inactive) in the test on MDA-N; 40 µM (inactive) in the test on HOP-62. In addition, the GI50 in the test with IGROV-1 is > 100 µM (inactive); in the test on CAKI-1, > 100 µM (inactive); with TK-10 it was 45.1 µM (inactive); in the test on MDA-MB-435, > 100 µM (inactive); in the test with K562, 63.1 µM (inactive); with SK-MEL-5 it was > 100 µM (inactive). Further, the GI50 is > 100 µM (inactive) in the test with NCI-H460; > 100 µM in the test with HCT-15; 77.6 µM (inactive) with HCT-116; > 100 µM (inactive) in the test with SN12C; 61.7 µM (inactive) with ACHN.
